In ChEMBL document CHEMBL1141946, “Inhibitors of phenylethanolamine N-methyltransferase devoid of alpha2-adrenoceptor affinity” (Bioorg Med Chem Lett, 2005):

Molecular target: T1, Adrenergic receptor alpha-2 (Homo sapiens, UniProt P08913+P18825+P18089)
T1 sequence (P08913 whole entry): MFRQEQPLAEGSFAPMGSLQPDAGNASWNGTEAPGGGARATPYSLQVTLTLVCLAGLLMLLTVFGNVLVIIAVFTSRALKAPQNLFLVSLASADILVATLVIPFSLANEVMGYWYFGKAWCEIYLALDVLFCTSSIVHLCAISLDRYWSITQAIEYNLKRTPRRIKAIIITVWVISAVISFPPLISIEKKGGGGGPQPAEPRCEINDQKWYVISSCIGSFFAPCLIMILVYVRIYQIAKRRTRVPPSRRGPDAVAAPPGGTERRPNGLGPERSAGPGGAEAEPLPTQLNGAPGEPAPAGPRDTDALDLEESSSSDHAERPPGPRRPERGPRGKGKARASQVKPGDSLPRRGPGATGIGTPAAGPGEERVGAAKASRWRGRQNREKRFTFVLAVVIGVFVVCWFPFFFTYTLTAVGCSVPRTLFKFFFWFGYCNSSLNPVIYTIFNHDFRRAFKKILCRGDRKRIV
T1 sequence (P18825 whole entry): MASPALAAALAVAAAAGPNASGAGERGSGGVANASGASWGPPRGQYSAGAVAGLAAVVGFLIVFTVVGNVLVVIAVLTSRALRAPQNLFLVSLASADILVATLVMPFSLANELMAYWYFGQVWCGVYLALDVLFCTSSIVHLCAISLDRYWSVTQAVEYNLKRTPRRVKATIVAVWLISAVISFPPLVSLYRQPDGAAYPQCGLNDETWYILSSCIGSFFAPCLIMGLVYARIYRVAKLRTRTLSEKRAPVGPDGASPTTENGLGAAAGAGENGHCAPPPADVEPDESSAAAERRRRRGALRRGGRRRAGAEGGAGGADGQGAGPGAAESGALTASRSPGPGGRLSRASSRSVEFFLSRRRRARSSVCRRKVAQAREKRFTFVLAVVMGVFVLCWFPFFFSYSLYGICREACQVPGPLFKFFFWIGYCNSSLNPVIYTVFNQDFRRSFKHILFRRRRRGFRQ
T1 sequence (P18089 whole entry): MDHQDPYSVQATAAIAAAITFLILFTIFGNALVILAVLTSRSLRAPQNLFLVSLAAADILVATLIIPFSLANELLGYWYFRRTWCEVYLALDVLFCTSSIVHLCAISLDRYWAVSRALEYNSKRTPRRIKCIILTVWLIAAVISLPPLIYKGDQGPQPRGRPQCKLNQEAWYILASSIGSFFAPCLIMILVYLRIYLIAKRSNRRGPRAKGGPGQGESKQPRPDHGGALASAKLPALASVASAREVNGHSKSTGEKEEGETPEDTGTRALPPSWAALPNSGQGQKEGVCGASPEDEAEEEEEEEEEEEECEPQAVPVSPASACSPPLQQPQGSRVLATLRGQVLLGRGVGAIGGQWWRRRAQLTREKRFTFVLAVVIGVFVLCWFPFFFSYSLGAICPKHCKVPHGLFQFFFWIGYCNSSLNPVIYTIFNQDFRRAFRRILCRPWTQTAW
Test: Displacement of [3H]clonidine from Adrenergic alpha-2 receptor
Assay type: protein assay
Conditions: not given

Structure (SMILES) | Ki [µM]
CCNS(=O)(=O)c1ccc2c(c1)CNC(C(F)(F)F)C2 (racemic) | > 1000
CCC1Cc2ccc(Br)cc2CN1 (racemic) | 1.2
Clc1ccc2c(c1Cl)CNCC2 | 0.021
O=[N+]([O-])c1ccc2c(c1)CNC(C(F)(F)F)C2 (racemic) | 1400
FC(F)(F)c1ccc2c(c1)CNC(C(F)(F)F)C2 (racemic) | > 1000
FC(F)(F)C1Cc2ccc(Br)cc2CN1 (racemic) | > 1000
CC(C)C1Cc2ccc([N+](=O)[O-])cc2CN1 (racemic) | 36
NS(=O)(=O)c1ccc2c(c1)CNC(C(F)(F)F)C2 (racemic) | > 1000
CS(=O)(=O)c1ccc2c(c1)CNC(C(F)(F)F)C2 (racemic) | 3900
FC(F)(F)C1Cc2ccccc2CN1 (centres undefined) | 400
CC1Cc2ccc(Br)cc2CN1 (racemic) | 1.1
FC(F)(F)C1Cc2ccc(I)cc2CN1 (racemic) | > 1000
NS(=O)(=O)c1ccc2c(c1)CNC(CO)C2 (centres undefined) | 1400
CC(C)C1Cc2ccc(Br)cc2CN1 (centres undefined) | 3.9
Ic1ccc2c(c1)CNCC2 | 0.22
FC(F)(F)C1Cc2ccc(Cl)cc2CN1 (racemic) | > 1000
N#Cc1ccc2c(c1)CNC(C(F)(F)F)C2 (racemic) | 2900
CCC1Cc2ccc([N+](=O)[O-])cc2CN1 (racemic) | 28

Same assay, conditions: read-out: Ki

Structure (SMILES) | Ki [µM]
NS(=O)(=O)c1ccc2c(c1)CNCC2 | 100
